Data on 32 compounds can be found in US20090047221A1 (NIPRI LIMITED, priority 2004, published 2009).

Read-outs that look alike come from different tables or passages of the source. Bounds are passed on as bounds.

Common to all, as to test: MTT assay (anti-proliferative activity)
Format in all cases: cell-based

For one assay, the system named is MDA-MB-468. Particulars: read-out: IC 50 MDA-MB-468. On the procedure: (§1) The MTT assay was used initially to determine the anti-proliferative activity of the test compounds. In the MTT assay a yellow thiazolyl blue tetrazolium bromide salt (MTT) is reduced, in metabolically active cells, to form insoluble purple formazan crystals which are solubilised by the addition of dimethyl sulphoxide (DMSO).
(§2) Wells containing medium only were used as blanks. Following the attachment period, cells were treated with appropriate drug concentrations (20 μl added per well). 40 mg/ml stock drug solutions, in DMSO, were stored at −20° C. and on the day of drug treatment working solutions of 4 mg/ml were prepared in medium which was further diluted to achieve final drug dilution volumes of 20 μl. Initial screening was determined over a concentration range of 1-200 μg/ml. […] Cells were exposed to drug for 96 h continual exposure (37° C., 5% CO2). Following the 96 h incubation, 50 μl MTT solution (1 g MTT/500 ml PBS) was added per well and the plates were further incubated for 4 h (37° C., 5% CO2). After incubation the MTT and medium was removed from the wells and 100 μl DMSO added per well. Plates were agitated on an orbital mixer platform (Stuart Scientific) for 10 minutes. Absorbance was measured at 570 nm on a Biotrak II (Amersham Bioscience) plate reader. IC50 values were calculated comparing control and drug treated cells.

The next assay concerns SkMel28. Particulars: read-out: IC 50 SkMel28. The procedure: as §1, §2
The next assay has as its system MalMe3M. Particulars: 96 h continual exposure, read-out: IC 50 MalMe3M. The procedure:
as §1, §2

The next assay has as its system MCF-7. As to conditions: read-out: IC 50 MCF-7. On the procedure: as §1, §2
The mark [1] stands for this setting: Homo sapiens, MDA-MB-468, 96 h continual exposure.
Where [2] appears, read: Homo sapiens, SK-MEL-28, 96 h continual exposure.
The mark [3] stands for this setting: Homo sapiens, MCF7, 96 h continual exposure.

With `CC(C)CC(NC(=O)c1ccc2c(c1O)C(=O)OC(C)C2)C(=O)O` (mixture of isomers) [ALM-56, Leucine Amide], the figures for the IC50 in the assay on MDA-MB-468 (96 h continual exposure), in the assay with SkMel28 (96 h continual exposure) and in the assay with MalMe3M were 113 µM, greater than 596 µM and 486 µM, respectively.
Take `CC1Cc2ccc(C(=O)NC(C(=O)O)c3ccccc3)c(O)c2C(=O)O1` (mixture of isomers) [ALM-64]: the IC50 is 118 µM in the assay on MDA-MB-468 (96 h continual exposure), greater than 562 µM in the assay with SkMel28 (96 h continual exposure), greater than 562 µM in the assay with MalMe3M and 197 µM in the assay on MCF-7 (96 h continual exposure).
Take `CC1Cc2ccc(C(=O)NC(CCCCN)C(=O)O)c(O)c2C(=O)O1` (mixture of isomers) [ALM-67]: the IC50 in the assay with MDA-MB-468 (96 h continual exposure), in the assay with SkMel28 (96 h continual exposure), in the assay with MalMe3M and in the assay with MCF-7 (96 h continual exposure) was greater than 570 µM each time.
Take `CC1Cc2ccc(C(=O)NCCC(=O)O)c(O)c2C(=O)O1` (racemic): the IC50 in the assay with MDA-MB-468 (96 h continual exposure) is 222 µM; in the assay with SkMel28 (96 h continual exposure), greater than 681 µM; in the assay on MalMe3M, 290 µM; with MCF-7 (96 h continual exposure), 136 µM.
On to `COc1cc2c(c(O)c1OC)C(=O)OC(C)C2` (racemic) [ALM-1, Racemic (±)—Kigelin], for which the IC50 in the assay on MDA-MB-468 (setting [1]) was determined as 306 µM; with SkMel28 (setting [2]) it was 718 µM; in the assay on MalMe3M (Homo sapiens, Malme-3M) it was 714 µM; with MCF-7 (setting [3]), 630 µM.
`CCCCC/C=C\C/C=C\CCCCCCCC(=O)Oc1c(OC)c(OC)cc2c1C(=O)OC(C)C2` (racemic) [ALM-3, Racemic Kigelin Linoleyl Ester]: the IC50 in the assay on MDA-MB-468 (96 h continual exposure) was 99.9 µM; with SkMel28 (96 h continual exposure) it was greater than 399 µM; in the assay with MalMe3M it was greater than 399 µM; in the assay on MCF-7 (96 h continual exposure), 150 µM.
Regarding `CC/C=C\C/C=C\C/C=C\CCCCCCCC(=O)Oc1c(OC)c(OC)cc2c1C(=O)OC(C)C2` (racemic) [ALM-4, Racemic Kigelin α-Linolenyl Ester], the IC50 in the assay with MDA-MB-468 (96 h continual exposure) is 90.2 µM; with SkMel28 (96 h continual exposure) it was greater than 401 µM; in the assay with MalMe3M, 321 µM; with MCF-7 (96 h continual exposure) it was 60.2 µM.
The like results for `CCCCC/C=C\C/C=C\C/C=C\CCCCC(=O)Oc1c(OC)c(OC)cc2c1C(=O)OC(C)C2` (racemic) [ALM-5, Racemic Kigelin γ-Linolenyl Ester] were, in that order, 50.1 µM, greater than 401 µM, 150 µM and 20 µM.
Take `COc1cc2c(c(OC)c1)C(=O)OC(C)C2` (racemic) [ALM-7, 6,8-Dimethoxy-3-methyl-isochroman-1-one]: the IC50 in the assay with MDA-MB-468 (setting [1]) was 486 µM; with SkMel28 (setting [2]), greater than 900 µM; in the assay on MalMe3M (Homo sapiens, Malme-3M), 626 µM; in the assay on MCF-7 (setting [3]), 432 µM.
Consider `COc1cc(O)c2c(c1)CC(C)OC2=O` (racemic) [ALM-8, 8-Hydroxy-6-methoxy-3-methylisochroman-1-one], for which the IC50 in the assay with MDA-MB-468 (setting [1]) was 428 µM; in the assay on SkMel28 (setting [2]) it was 725 µM; in the assay on MalMe3M (Homo sapiens, Malme-3M), 663 µM; in the assay on MCF-7 (setting [3]), 428 µM.
With `COc1cccc2c1C(=O)OC(C)C2` (racemic) [ALM-12, Racemic Mellein Methyl Ether], the IC50 in the assay with MDA-MB-468 (setting [1]) was 583 µM; in the assay with SkMel28 (setting [2]) it was greater than 1040 µM; in the assay on MalMe3M (Homo sapiens, Malme-3M), greater than 1040 µM; in the assay on MCF-7 (setting [3]), greater than 1040 µM.
Turning to `CC(=O)Oc1cccc2c1C(=O)OC(C)C2` (racemic) [ALM-15, Acetyl rac-Mellein], the IC50 was determined as 345 µM in the assay with MDA-MB-468 (96 h continual exposure), 622 µM in the assay on SkMel28 (96 h continual exposure), 613 µM in the assay on MalMe3M and 613 µM with MCF-7 (96 h continual exposure).
Turning to `CCOC(=O)Oc1cccc2c1C(=O)OC(C)C2` (racemic) [ALM-16, Racemic Mellein Ethyl Carbonate], the IC50 with MDA-MB-468 (96 h continual exposure) came out at 240 µM; in the assay on SkMel28 (96 h continual exposure), 360 µM; in the assay with MalMe3M it was 456 µM; in the assay on MCF-7 (96 h continual exposure), 296 µM.
As to `CCCCC/C=C\C/C=C\CCCCCCCC(=O)Oc1cccc2c1C(=O)OC(C)C2` (racemic) [ALM-18, Racemic Mellein Linoleyl Ester], the IC50 in the assay with MDA-MB-468 (96 h continual exposure), in the assay with SkMel28 (96 h continual exposure), with MalMe3M and in the assay on MCF-7 (96 h continual exposure) was greater than 453 µM each time.
As to `CC/C=C\C/C=C\C/C=C\CCCCCCCC(=O)Oc1cccc2c1C(=O)OC(C)C2` (racemic) [ALM-19, Racemic Mellein α-Linolenyl Ester], the IC50 in the assay with MDA-MB-468 (96 h continual exposure), with SkMel28 (96 h continual exposure), in the assay with MalMe3M and in the assay on MCF-7 (96 h continual exposure) was greater than 455 µM throughout.
On to `CCCCC/C=C\C/C=C\C/C=C\CCCCC(=O)Oc1cccc2c1C(=O)OC(C)C2` (racemic) [ALM-20, Racemic Mellein γ-Linolenyl Ester], for which the IC50 in the assay with MDA-MB-468 (96 h continual exposure) is greater than 455 µM; in the assay on SkMel28 (96 h continual exposure), greater than 455 µM; in the assay on MalMe3M it was greater than 455 µM; in the assay on MCF-7 (96 h continual exposure), 342 µM.
As to `CC1Cc2c(F)ccc(O)c2C(=O)O1` (racemic) [ALM-23, Racemic Para-Fluoromellein], the IC50 with MDA-MB-468 (96 h continual exposure) was 469 µM; with SkMel28 (96 h continual exposure) it was greater than 1020 µM; in the assay with MalMe3M, greater than 1020 µM; with MCF-7 (96 h continual exposure) it was greater than 1020 µM.
Regarding `CC1Cc2c(Br)ccc(O)c2C(=O)O1` (racemic) [ALM-24], the IC50 amounted to 171 µM with MDA-MB-468 (setting [1]); 296 µM in the assay with SkMel28 (setting [2]); 249 µM in the assay on MalMe3M (Homo sapiens, Malme-3M); 261 µM in the assay with MCF-7 (setting [3]).
For `CC1Cc2c(I)ccc(O)c2C(=O)O1` (racemic) [ALM-26, Racemic Para-Iodomellein], the IC50 stood at 263 µM in the assay on MDA-MB-468 (setting [1]); 168 µM in the assay with MalMe3M (Homo sapiens, Malme-3M); 329 µM with MCF-7 (setting [3]).
Take `CC1Cc2c(I)cc(I)c(O)c2C(=O)O1` (racemic) [ALM-27, Racemic 2,4-di-iodomellein]: the IC50 is 48.8 µM in the assay with MDA-MB-468 (setting [1]); 76.8 µM in the assay on SkMel28 (setting [2]); 109 µM in the assay on MalMe3M (Homo sapiens, Malme-3M); 116 µM in the assay with MCF-7 (setting [3]).
In the same order, the values of `COc1ccc(I)c2c1C(=O)OC(C)C2` (racemic) [ALM-28] are 211 µM, 283 µM, 484 µM and 594 µM.
The like results for `CC(=O)c1ccc2c(c1O)C(=O)OC(C)C2` (racemic) [ALM-29, Racemic ortho-acetylmellein] were, in that order, 341 µM, 363 µM, 341 µM and 341 µM.
In the same order, the values of `CC1Cc2c([N+](=O)[O-])cc([N+](=O)[O-])c(O)c2C(=O)O1` (racemic) [ALM-30, Racemic 2,4-dinitromellein] are 138 µM, 179 µM, 142 µM and 130 µM.
Consider `CC1Cc2ccc(C(=O)O)c(O)c2C(=O)O1` (racemic) [ALM-33, 8-Hydroxy-3-methyl-1-oxo-isochroman-7-carboxylic acid], for which the IC50 in the assay on MDA-MB-468 (setting [1]) is 585 µM; in the assay on SkMel28 (setting [2]), greater than 900 µM; with MalMe3M (Homo sapiens, Malme-3M), greater than 900 µM; in the assay on MCF-7 (setting [3]) it was greater than 900 µM.
`COC(=O)c1ccc2c(c1O)C(=O)OC(C)C2` (racemic) [ALM-34, 8-Hydroxy-3-methyl-1-oxo-isochroman-7-carboxylic acid methyl ester]: the IC50 with MDA-MB-468 (setting [1]) was 360 µM; in the assay on SkMel28 (setting [2]) it was greater than 847 µM; in the assay with MalMe3M (Homo sapiens, Malme-3M), greater than 847 µM; in the assay with MCF-7 (setting [3]), greater than 847 µM.
On to `CC1Cc2ccc(C(=O)OCc3ccccc3)c(O)c2C(=O)O1` (racemic) [ALM-36, Benzyl Ester], for which the figures for the IC50 with MDA-MB-468 (96 h continual exposure), with SkMel28 (96 h continual exposure) and in the assay with MalMe3M were 99.3 µM, 176 µM and 106 µM, respectively.
`CC1Cc2ccc(C(=O)Oc3ccccc3)c(O)c2C(=O)O1` (racemic) [ALM-37, Phenyl Ester]: the IC50 in the assay with MDA-MB-468 (96 h continual exposure) amounted to 181 µM; in the assay on SkMel28 (96 h continual exposure), 332 µM; in the assay on MalMe3M, 308 µM; in the assay with MCF-7 (96 h continual exposure), 285 µM.
In the same order, the values of `CC1Cc2ccc(C(=O)OC3CCCCC3)c(O)c2C(=O)O1` (racemic) [ALM-38, Cyclohexyl Ester] are 131 µM, 131 µM, 131 µM and 98.6 µM.
The like results for `CC1Cc2ccc(C(=O)OC(C)(C)C)c(O)c2C(=O)O1` (racemic) [ALM-39, Tert-Butyl Ester] were, in that order, 305 µM, 359 µM, 345 µM and 392 µM.
On to `CCCCCCOC(=O)c1ccc2c(c1O)C(=O)OC(C)C2` (racemic) [ALM-40, Hexyl Ester], for which the IC50 with MDA-MB-468 (96 h continual exposure) came to 42.4 µM; in the assay with SkMel28 (96 h continual exposure), 163 µM; in the assay with MalMe3M, 114 µM; with MCF-7 (96 h continual exposure), 65.3 µM.
With `CCCCCCCCCCCCOC(=O)c1ccc2c(c1O)C(=O)OC(C)C2` (racemic) [ALM-41, Dodecyl Ester], the IC50 in the assay on MDA-MB-468 (96 h continual exposure) was determined as 166 µM; with SkMel28 (96 h continual exposure) it was 256 µM; in the assay on MalMe3M, 333 µM; in the assay with MCF-7 (96 h continual exposure) it was 192 µM.
For the compound `CCCCCCCC/C=C\CCCCCCCCOC(=O)c1ccc2c(c1O)C(=O)OC(C)C2` (racemic) [ALM-42, Oleyl Ester], the IC50 is 317 µM in the assay on MDA-MB-468 (96 h continual exposure), greater than 423 µM in the assay with SkMel28 (96 h continual exposure), greater than 423 µM in the assay on MalMe3M and greater than 423 µM with MCF-7 (96 h continual exposure).
